Test results taken from publication PMC8467532, “DYRK1A Kinase Inhibitors Promote β-Cell Survival and Insulin Homeostasis” (Cells, 2021).

Columns and labels:
[1] = system: NFAT; assay: NFAT luciferase reporter assay in HEK 293 NFAT cell line expressing DYRK1A; assay type: cell-based
Procedure: The Renilla luciferase reporter assay was performed in HEK 293 NFAT cell line, constitutively expressing DYRK1A, NFAT and Renilla luciferase under the control of an NFAT-RE promoter. The cells were seeded at 10,000 per well in 96-well white plates (Cellstar, Greiner; Burlington, MA, United States). The following day cells were incubated with the indicated concentration of inhibitor for 30 min, then the medium was changed, and cells were stimulated with 1 μM ionomycin and 10 nM PMA for 5 h. Next, the cell lysate was harvested to measure luciferase activity with Renilla-Glo Luciferase Assay System (Promega, Wisconsin, United States). All experiments were carried out in triplicates.

[2] = system: hiPSC-derived pancreatic organoids; assay: Insulin secretion assay in hiPSC-derived β-cell organoids (ELISA); assay type: cell-based, human; design: key to insulin secretion (ELISA): ↑: moderate; ↑↑: most potent
Procedure: Differentiation of hiPSC into iPSC-derived β-cell islets was carried out following the protocol established by Pellegrini et al. for pluripotent stem cells with slight modifications. A day before differentiation, 800,000 cells were seeded on coated with Geltrex (Gibco) 12 wells plate in Essential 8 medium (Gibco) with Y-27632 10 µM (Abcam). The following culture media were used for differentiation:
M1 medium: MCDB131 (Gibco) + 8 mM D-(þ)-Glucose (Sigma) + 1.23 g/L NaHCO3 (Sigma) + 2% BSA (Sigma) + 0.25 mM Vitamin C (Sigma) + 1% Pen/Strep (Lonza, Basel, Switzerland) + 1% L-glutamine (Lonza);
M2 medium: MCDB131 + 20 mM D-Glucose + 1.754 g/L NaHCO3 + 2% BSA + 0.25 mM Vitamin C + Heparin 10mg/mL (Sigma) + 1% Pen/Strep + 1% L-glutamine. All media were filter-sterilized through a 0.22 µm bottle top filter (Corning, New York, NY, USA). For sequential culture medium changes, small molecules and growth factors were added to the base media immediately before daily exchange. Media switches were as follows: days 0–3: STEMdiff™ Definitive Endoderm Kit ([…], Vancouver, Canada) used following manufacturer instructions; days 4–6: M1 medium + 50 ng/mL KGF (Peprotech, London, UK) + 1:50,000 ITS-X (Invitrogen, Carlsbad, CA, USA); days 7–8: M1 medium + 50 ng/mL KGF + 0.25 µM Sant1 (Sigma) + […] Retinoic acid (RA) (Sigma) + 500 nM PdBU (Millipore, Berlington, MA, United States) + 1:200 ITS-X + 200 nM LDN193189 (only Day 7) (Sigma); days 9–13: M1 medium + 50 ng/mL KGF + 0.25 µM Sant1 + 100 nM RA + 1:200 ITS-X; days 14–18: M2 medium + 0.25 µM Sant1 + 100 nM RA + 1 µM XXI (Millipore) + 10 µM Alk5i II (Selleckchem, Munich, Germany) + 1 µM L-3,30,5-Triiodothyronine (T3) (Sigma) + 20 ng/mL Betacellulin (R&D, Minneapolis, MN, USA) + 1:200 ITS-X.
(§1) The Insulin ELISA (Ultra Sensitive) was used to quantify insulin levels in control and treated organoids and isolated islets from the mouse pancreas (Crystal Chem, Downers Grove, IL, USA). Islets were homogenized in lysis buffer. Obtained buffer lysates and medium samples (after GSIS) were analyzed for total protein level and subsequently processed following the manufacturer’s protocol.

[3] = system: isolated mouse islets; assay: Insulin secretion assay in isolated mouse islets (ELISA, immunostaining); assay type: cell-based; design: key to insulin secretion (ELISA): ↑: moderate; ↑↑: most potent
Procedure: as §1
Mice (male, initially 12 weeks old) were sacrificed by cervical vertebral dislocation. Before starting the incision, their bodies were sprayed with 70% EtOH. A hemostatic clamp was placed on both sides of the small intestine, leaving a small pocket to absorb the collagenase solution into the intestine. Next, 3 mL of cold collagenase solution was introduced into the pancreas through the bile duct. The pancreas was removed from the body and placed in a falcon tube containing 2 mL of collagenase solution. The tube was placed in a water bath at 37 °C. It was incubated for 13 min. At the end of this time, the falcon was shaken vigorously. The collagenase was inactivated with FBS. The sample was centrifuged for 30 s (300× g). This step was repeated 3 times. HBSS was then added to the sample and centrifuged two more times at the same speed as before. After the last centrifugation, HBSS was removed and Percoll (1.045 g/mL) (Sigma-Aldrich) was added. The Percoll solution was left to sediment for 5 min. After this time, the islets were collected from the bottom of the falcon. The step was repeated 3 times. Finally, islets were cultured in RPMI-1640 (Pan Biotech) supplemented with 2 mM L-glutamine (Gibco), 10% fetal bovine serum (FBS) and 1% penicillin/streptomycin and the culture medium was changed daily.
The presence of insulin, C-peptide, glucagon, Pdx-1 and Nkx6.1 was assessed in isolated mouse islets. Islets were fixed in PFA (3.8%) for 30 min, washed with PBS and 0.15% Triton X-100 was added for 1.5 h, then washed again with PBS and samples were transferred to 1% BSA + 0.05% Triton X-100 solution for 3 h. After this time, islets were incubated with primary antibody for 12 h at 4 °C. The secondary antibody was then added for 3 h. Next, the islets were incubated for 10 min with Hoechst33342. After incubation, at 37 °C, in the dark, the samples were washed twice with HBSS, the slide was transferred to a microscope table and the cells were visualized under a Zeiss LSM 880 confocal microscope (Carl Zeiss, Jena, Germany) with a 63× immersion objective. Images were analyzed by Zeiss ZEN Software.

[4] = system: INS-1E and MIN6 cells; assay: MTT cytotoxicity and cell survival assay, β-cell lines
[5] = high glucose, day 4 after treatment

In the case of `O=c1ccc2cnc3ccc(-c4cn[nH]c4)cc3c2n1-c1ccc(F)cc1C(F)(F)F` [AC27, 1-(4-fluoro-2-(trifluoromethyl)phenyl)-9-(1H-pyrazol-4-yl)benzo[h][1, 6]naphthyridin-2-one], the “activity relative to harmine in NFAT assay” value ([1]; 1 µM AC27 gives same activity as 10 µM harmine) is reported as about 10 times, the “increase of NFAT activity” value ([1]; low concentration range 0.03 µM–1 µM) is reported as at most 6 fold and the insulin release ([2]; GSIS, compared with untreated control cells) is reported as “markedly increased insulin release”. The “insulin secretion (ELISA)” value ([2]; Table 2, hiPSC) was “↑”, the “insulin secretion (ELISA)” value ([3]; Table 2, Isolated islets) was “↑↑” and the “insulin secretion compared with untreated islets” value ([3]; after GSIS) was “significantly higher”. For the same molecule, the “increase in insulin secretion compared with control islets” value [3, 5] was 60%, the “insulin secretion, higher than with harmine” value [3, 5] was “ca. 15%” and the “percentage of total insulin released” value ([3]; secretion normalized for total insulin content) was “higher”. For the same molecule, the “concentration without significant toxic effects” value ([4]; MTT, 24 h) was “up to 5 μM” and the toxicity ([4]; Table 2, Cell lines) was “no”.
